Experimental data published in PMC6704710, “Preclinical evaluation of 3D185, a novel potent inhibitor of FGFR1/2/3 and CSF-1R, in FGFR-dependent and macrophage-dominant cancer models” (Journal of Experimental & Clinical Cancer Research : CR, 2019).

Tests used:
Experiment in all cases: Eurofins kinase panel
Type in all cases: biochemical
Conditions in all cases: read-out: Inhibition rate (%)
CDK3/cyclinE(h) = target: T1, CDK3/cyclinE(h) (Homo sapiens, UniProt Q00526)
T1 construct: purchased Eurofins (KinaseProfiler)

CDK6/cyclinD3(h) = target: T2, CDK6/cyclinD3(h) (Homo sapiens, UniProt Q00534)
T2 construct: purchased Eurofins (KinaseProfiler)

CK2(h) = target: T3, CK2(h) (Homo sapiens, UniProt P68400)
T3 construct: purchased Eurofins (KinaseProfiler)

CLIK1(h) = target: T4, CLIK1(h) (Homo sapiens, UniProt Q8TDR2)
T4 construct: purchased Eurofins (KinaseProfiler)

Hck(h) activated = target: T5, Hck(h) activated (Homo sapiens, UniProt P08631)
T5 construct: purchased Eurofins (KinaseProfiler)

IGF-1R(h) = target: T6, IGF-1R(h) (Homo sapiens, UniProt P08069)
T6 construct: purchased Eurofins (KinaseProfiler)

JAK1(h) = target: T7, JAK1(h) (Homo sapiens, UniProt P23458)
T7 construct: purchased Eurofins (KinaseProfiler)

MAPK1(h) = target: T8, MAPK1(h) (Homo sapiens, UniProt P27361)
T8 construct: purchased Eurofins (KinaseProfiler)

MOK(h) = target: T9, MOK(h) (Homo sapiens, UniProt Q9UQ07)
T9 construct: purchased Eurofins (KinaseProfiler)
T9 sequence (Q9UQ07 1-419): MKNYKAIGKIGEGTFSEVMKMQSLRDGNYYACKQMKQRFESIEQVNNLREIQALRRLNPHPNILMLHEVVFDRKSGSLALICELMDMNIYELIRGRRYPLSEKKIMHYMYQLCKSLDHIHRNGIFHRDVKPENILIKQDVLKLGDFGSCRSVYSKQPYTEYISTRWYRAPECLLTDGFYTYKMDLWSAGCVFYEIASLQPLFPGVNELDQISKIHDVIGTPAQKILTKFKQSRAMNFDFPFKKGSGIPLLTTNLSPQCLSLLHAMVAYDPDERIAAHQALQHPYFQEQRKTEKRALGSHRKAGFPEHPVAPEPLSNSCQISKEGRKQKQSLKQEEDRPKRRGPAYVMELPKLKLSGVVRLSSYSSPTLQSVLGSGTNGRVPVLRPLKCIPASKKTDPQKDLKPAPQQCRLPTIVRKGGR

MRCKα(h) = target: T10, MRCKα(h) (Homo sapiens, UniProt Q5VT25)
T10 construct: purchased Eurofins (KinaseProfiler)

Met(h) = target: T11, Met(h) (Homo sapiens, UniProt P08581)
T11 construct: purchased Eurofins (KinaseProfiler)

[1] = target: T12, PI3 Kinase (p110α(E542K)/p85α)(h) (Homo sapiens, UniProt P42336, E542K)
T12 construct: purchased Eurofins (KinaseProfiler)

PI3 Kinase (p120γ)(h) = target: T13, PI3 Kinase (p120γ)(h) (Homo sapiens, UniProt P48736)
T13 construct: purchased Eurofins (KinaseProfiler)

PKCζ(h) = target: T14, PKCζ(h) (Homo sapiens, UniProt Q05513)
T14 construct: purchased Eurofins (KinaseProfiler)
T14 sequence (Q05513 1-592): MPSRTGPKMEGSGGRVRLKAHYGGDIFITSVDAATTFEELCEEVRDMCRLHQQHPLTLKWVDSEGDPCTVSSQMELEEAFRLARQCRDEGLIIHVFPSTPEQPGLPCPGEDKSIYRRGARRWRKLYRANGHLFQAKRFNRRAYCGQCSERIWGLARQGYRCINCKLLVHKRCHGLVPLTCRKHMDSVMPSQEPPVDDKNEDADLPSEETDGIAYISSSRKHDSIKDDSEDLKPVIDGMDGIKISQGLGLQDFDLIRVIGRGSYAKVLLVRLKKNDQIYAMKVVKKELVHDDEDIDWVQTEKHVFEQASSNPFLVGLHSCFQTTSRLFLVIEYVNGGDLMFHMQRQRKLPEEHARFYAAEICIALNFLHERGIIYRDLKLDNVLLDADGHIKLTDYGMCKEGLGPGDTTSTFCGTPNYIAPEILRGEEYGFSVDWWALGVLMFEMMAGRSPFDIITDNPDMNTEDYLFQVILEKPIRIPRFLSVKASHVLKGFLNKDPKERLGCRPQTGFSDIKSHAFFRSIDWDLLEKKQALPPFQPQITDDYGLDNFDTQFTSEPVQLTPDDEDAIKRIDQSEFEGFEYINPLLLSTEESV

SAPK2a(h) = target: T15, SAPK2a(h) (Homo sapiens, UniProt Q16539)
T15 construct: purchased Eurofins (KinaseProfiler)

SAPK2b(h) = target: T16, SAPK2b(h) (Homo sapiens, UniProt Q15759)
T16 construct: purchased Eurofins (KinaseProfiler)

cKit(D816V)(h) = target: T17, cKit(D816V)(h) (Homo sapiens, UniProt P10721, D816V)
T17 construct: purchased Eurofins (KinaseProfiler)

T4 sequence (Q8TDR2 whole entry): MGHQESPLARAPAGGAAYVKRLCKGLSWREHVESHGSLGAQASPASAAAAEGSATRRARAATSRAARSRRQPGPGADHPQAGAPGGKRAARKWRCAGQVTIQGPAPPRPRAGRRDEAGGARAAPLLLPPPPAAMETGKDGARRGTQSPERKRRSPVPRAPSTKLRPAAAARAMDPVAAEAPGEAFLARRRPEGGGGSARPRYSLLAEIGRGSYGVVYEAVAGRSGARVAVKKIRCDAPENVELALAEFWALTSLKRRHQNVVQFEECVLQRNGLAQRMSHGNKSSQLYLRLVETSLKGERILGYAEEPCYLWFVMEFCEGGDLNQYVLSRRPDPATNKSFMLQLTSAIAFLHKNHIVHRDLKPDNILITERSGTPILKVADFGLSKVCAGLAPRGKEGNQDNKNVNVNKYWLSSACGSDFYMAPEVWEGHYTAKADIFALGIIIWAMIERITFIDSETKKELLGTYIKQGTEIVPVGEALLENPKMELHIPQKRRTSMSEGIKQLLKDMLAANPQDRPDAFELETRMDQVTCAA
T3 sequence (P68400 whole entry): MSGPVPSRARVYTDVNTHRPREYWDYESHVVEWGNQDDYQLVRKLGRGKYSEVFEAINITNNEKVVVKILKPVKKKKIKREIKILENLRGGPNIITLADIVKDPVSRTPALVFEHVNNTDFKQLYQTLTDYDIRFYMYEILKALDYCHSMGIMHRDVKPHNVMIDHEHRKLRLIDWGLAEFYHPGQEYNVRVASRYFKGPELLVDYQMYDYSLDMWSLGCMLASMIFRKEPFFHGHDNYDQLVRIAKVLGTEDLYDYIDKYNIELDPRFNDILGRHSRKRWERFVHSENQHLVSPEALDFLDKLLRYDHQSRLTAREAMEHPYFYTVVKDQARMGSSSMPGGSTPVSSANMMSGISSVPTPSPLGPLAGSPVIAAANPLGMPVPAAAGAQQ
T3 sequence (P67870 whole entry partner): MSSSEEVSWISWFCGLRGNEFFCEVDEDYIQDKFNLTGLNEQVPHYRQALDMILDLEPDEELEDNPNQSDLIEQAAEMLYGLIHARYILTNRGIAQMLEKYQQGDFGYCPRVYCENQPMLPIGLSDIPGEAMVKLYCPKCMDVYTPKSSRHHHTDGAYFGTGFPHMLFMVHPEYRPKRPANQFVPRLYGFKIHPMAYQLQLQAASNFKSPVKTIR
T16 sequence (Q15759 whole entry): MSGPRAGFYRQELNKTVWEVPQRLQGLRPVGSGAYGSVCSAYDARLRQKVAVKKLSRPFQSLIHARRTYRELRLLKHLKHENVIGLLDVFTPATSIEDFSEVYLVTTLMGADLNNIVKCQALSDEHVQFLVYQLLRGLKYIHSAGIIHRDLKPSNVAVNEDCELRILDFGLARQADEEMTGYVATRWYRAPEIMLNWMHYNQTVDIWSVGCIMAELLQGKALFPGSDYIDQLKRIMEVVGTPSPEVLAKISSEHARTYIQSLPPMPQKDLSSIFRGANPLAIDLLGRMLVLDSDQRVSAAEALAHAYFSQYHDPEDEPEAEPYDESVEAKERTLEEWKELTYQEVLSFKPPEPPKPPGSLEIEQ
T8 sequence (P27361 whole entry): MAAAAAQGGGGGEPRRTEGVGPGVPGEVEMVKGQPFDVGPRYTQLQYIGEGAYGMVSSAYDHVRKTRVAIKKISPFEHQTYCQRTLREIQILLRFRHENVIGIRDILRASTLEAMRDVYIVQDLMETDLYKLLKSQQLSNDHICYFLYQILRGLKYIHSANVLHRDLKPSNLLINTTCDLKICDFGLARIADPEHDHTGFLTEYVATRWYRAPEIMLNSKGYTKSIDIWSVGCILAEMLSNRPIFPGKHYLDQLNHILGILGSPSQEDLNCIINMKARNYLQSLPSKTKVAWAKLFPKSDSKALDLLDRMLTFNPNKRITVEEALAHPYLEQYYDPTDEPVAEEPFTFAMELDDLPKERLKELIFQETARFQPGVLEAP
T6 sequence (P08069 31-1367): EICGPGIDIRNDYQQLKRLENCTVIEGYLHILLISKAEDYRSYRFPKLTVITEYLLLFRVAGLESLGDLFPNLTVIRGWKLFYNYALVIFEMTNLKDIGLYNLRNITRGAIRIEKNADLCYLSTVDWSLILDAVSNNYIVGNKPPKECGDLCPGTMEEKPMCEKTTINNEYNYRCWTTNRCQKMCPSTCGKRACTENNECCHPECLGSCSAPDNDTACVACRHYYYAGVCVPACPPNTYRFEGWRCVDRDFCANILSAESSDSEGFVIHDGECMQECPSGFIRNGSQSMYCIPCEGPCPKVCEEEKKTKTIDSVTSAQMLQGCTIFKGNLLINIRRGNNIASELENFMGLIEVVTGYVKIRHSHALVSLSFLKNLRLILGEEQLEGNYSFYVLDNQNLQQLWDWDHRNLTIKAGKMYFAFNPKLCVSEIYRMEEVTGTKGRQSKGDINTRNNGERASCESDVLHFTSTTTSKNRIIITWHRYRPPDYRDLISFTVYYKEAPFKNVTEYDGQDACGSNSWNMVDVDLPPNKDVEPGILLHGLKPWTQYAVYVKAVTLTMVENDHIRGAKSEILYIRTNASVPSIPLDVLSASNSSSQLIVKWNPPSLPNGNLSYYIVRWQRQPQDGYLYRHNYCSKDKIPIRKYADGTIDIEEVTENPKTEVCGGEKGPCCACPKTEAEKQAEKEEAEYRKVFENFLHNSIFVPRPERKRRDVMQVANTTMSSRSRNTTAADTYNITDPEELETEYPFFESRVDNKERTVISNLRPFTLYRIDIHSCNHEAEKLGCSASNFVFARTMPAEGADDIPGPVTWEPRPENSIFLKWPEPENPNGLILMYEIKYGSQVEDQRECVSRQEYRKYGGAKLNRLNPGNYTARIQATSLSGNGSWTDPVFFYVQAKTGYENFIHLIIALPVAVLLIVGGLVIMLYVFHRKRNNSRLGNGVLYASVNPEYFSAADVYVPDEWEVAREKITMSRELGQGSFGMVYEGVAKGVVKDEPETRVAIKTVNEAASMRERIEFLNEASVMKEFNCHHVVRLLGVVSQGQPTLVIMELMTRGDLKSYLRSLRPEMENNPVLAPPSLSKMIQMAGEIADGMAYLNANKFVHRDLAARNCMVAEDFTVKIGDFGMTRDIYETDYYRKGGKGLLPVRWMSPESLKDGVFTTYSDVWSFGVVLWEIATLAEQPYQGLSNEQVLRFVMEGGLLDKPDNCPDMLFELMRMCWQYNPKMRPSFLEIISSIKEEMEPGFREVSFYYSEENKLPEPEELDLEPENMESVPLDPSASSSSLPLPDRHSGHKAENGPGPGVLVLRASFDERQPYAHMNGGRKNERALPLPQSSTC
T2 sequence (Q00534 whole entry): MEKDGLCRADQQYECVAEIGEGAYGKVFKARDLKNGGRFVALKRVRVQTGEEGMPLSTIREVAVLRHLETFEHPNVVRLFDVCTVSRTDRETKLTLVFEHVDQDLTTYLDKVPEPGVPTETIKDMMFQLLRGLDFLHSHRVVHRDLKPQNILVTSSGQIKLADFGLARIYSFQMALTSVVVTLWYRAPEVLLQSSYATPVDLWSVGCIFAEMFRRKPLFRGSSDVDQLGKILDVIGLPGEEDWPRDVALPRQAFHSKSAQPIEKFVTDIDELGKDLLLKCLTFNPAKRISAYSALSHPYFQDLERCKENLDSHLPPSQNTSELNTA
T2 sequence (P30281 whole entry partner): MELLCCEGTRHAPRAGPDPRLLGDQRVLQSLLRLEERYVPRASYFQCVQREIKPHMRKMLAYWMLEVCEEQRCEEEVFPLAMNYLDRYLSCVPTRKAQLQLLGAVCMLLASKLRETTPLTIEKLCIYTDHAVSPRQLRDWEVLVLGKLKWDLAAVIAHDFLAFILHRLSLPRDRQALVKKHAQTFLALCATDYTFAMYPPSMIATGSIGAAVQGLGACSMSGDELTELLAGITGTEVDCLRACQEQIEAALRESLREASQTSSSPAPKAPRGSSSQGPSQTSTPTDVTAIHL
T1 sequence (Q00526 whole entry): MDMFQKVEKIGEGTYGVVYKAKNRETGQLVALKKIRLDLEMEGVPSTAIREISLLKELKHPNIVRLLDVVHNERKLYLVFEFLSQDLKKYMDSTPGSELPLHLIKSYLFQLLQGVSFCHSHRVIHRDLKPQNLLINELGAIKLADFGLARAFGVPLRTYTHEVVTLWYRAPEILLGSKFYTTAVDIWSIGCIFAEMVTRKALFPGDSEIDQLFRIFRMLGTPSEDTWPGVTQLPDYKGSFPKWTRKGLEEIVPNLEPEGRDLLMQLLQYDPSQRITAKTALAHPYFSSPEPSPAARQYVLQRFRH
T1 sequence (P24864 whole entry partner): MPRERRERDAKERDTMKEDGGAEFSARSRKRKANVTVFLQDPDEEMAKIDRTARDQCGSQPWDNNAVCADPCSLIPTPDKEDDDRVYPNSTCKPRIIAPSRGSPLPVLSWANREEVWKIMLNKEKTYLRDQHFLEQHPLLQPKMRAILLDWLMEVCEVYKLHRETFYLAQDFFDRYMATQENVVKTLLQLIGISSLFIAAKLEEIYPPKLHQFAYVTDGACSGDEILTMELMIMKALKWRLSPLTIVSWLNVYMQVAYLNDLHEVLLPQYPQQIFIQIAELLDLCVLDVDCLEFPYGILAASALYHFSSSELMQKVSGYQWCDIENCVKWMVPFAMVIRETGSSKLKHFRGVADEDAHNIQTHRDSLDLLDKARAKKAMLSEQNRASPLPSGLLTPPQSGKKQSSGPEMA
T15 sequence (Q16539 whole entry): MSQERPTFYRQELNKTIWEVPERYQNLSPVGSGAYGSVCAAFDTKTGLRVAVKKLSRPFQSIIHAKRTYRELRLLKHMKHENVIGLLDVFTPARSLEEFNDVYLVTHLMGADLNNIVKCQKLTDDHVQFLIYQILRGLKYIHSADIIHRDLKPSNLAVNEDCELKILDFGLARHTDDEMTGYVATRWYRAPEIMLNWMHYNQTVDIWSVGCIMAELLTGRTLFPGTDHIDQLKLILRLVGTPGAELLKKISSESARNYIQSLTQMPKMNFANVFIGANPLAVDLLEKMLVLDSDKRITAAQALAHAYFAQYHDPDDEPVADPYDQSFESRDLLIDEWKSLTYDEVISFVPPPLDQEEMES

`COc1cc(OC)c(Cl)c(-c2ccc3c(NC(=O)c4ccc(N5CCNC(C)(C)C5)cc4)n[nH]c3n2)c1Cl` [3D185] showed an inhibition at 0.01 µM (CDK3/cyclinE(h); 10 nM) of 1%, an inhibition at 0.1 µM (CDK3/cyclinE(h); 100 nM) of -11% and an inhibition at 1 µM (CDK3/cyclinE(h); 1000 nM) of -19%. For the same compound, the inhibition at 0.01 µM (CDK6/cyclinD3(h); 10 nM) was 9%, the inhibition at 0.1 µM (CDK6/cyclinD3(h); 100 nM) was 15% and the inhibition at 1 µM (CDK6/cyclinD3(h); 1000 nM) was 16%. It also gave an inhibition at 0.01 µM (CK2(h); 10 nM) of 2%, an inhibition at 0.1 µM (CK2(h); 100 nM) of 9% and an inhibition at 1 µM (CK2(h); 1000 nM) of 9%. It also gave an inhibition at 0.01 µM (CLIK1(h); 10 nM) of 0%, an inhibition at 0.1 µM (CLIK1(h); 100 nM) of -1% and an inhibition at 1 µM (CLIK1(h); 1000 nM) of 12%. For the same compound, the inhibition at 0.01 µM (Hck(h) activated; 10 nM) was 6%, the inhibition at 0.1 µM (Hck(h) activated; 100 nM) was 44% and the inhibition at 1 µM (Hck(h) activated; 1000 nM) was 87%. The inhibition at 0.01 µM (IGF-1R(h); 10 nM) was -5%, the inhibition at 0.1 µM (IGF-1R(h); 100 nM) was 54% and the inhibition at 1 µM (IGF-1R(h); 1000 nM) was 88%. The inhibition at 0.01 µM (JAK1(h); 10 nM) was 13%, the inhibition at 0.1 µM (JAK1(h); 100 nM) was 15% and the inhibition at 1 µM (JAK1(h); 1000 nM) was 20%. It also gave an inhibition at 0.01 µM (MAPK1(h); 10 nM) of -5%, an inhibition at 0.1 µM (MAPK1(h); 100 nM) of -6% and an inhibition at 1 µM (MAPK1(h); 1000 nM) of 0%. The inhibition at 0.01 µM (MOK(h); 10 nM) was -7%, the inhibition at 0.1 µM (MOK(h); 100 nM) was 6% and the inhibition at 1 µM (MOK(h); 1000 nM) was 1%. It also gave an inhibition at 0.01 µM (MRCKα(h); 10 nM) of 12%, an inhibition at 0.1 µM (MRCKα(h); 100 nM) of 16% and an inhibition at 1 µM (MRCKα(h); 1000 nM) of 14%. For the same compound, the inhibition at 0.01 µM (Met(h); 10 nM) was 16%, the inhibition at 0.1 µM (Met(h); 100 nM) was 15% and the inhibition at 1 µM (Met(h); 1000 nM) was 55%. It also gave an inhibition at 0.01 µM ([1]; 10 nM) of -2%, an inhibition at 0.1 µM ([1]; 100 nM) of 2% and an inhibition at 1 µM ([1]; 1000 nM) of 2%. The inhibition at 0.01 µM (PI3 Kinase (p120γ)(h); 10 nM) was 0%, the inhibition at 0.1 µM (PI3 Kinase (p120γ)(h); 100 nM) was 1% and the inhibition at 1 µM (PI3 Kinase (p120γ)(h); 1000 nM) was 3%. It also gave an inhibition at 0.01 µM (PKCζ(h); 10 nM) of -11%, an inhibition at 0.1 µM (PKCζ(h); 100 nM) of 7% and an inhibition at 1 µM (PKCζ(h); 1000 nM) of -22%. The inhibition at 0.01 µM (SAPK2a(h); 10 nM) was -7%, the inhibition at 0.1 µM (SAPK2a(h); 100 nM) was -2% and the inhibition at 1 µM (SAPK2a(h); 1000 nM) was -4%. It also gave an inhibition at 0.01 µM (SAPK2b(h); 10 nM) of 3%, an inhibition at 0.1 µM (SAPK2b(h); 100 nM) of 14% and an inhibition at 1 µM (SAPK2b(h); 1000 nM) of 20%. The inhibition at 0.01 µM (cKit(D816V)(h); 10 nM) was -7%, the inhibition at 0.1 µM (cKit(D816V)(h); 100 nM) was 1% and the inhibition at 1 µM (cKit(D816V)(h); 1000 nM) was 3%.
